Experiments:
FMDV = system: FMDV; design: species or system C57BL/6 mice; settings: mouse, in vivo
SP antibodies in serum = system: SP antibodies in serum; design: species or system C57BL/6 mice; settings: mouse, in vivo
porcine naive PBMCs = assay type: cell-based, pigs
porcine Mo-MΦs [1] = experiment: Inhibition of phagocytosis by cytochalasin D, cytokine ELISA in Mo-MΦs
porcine Mo-DCs [2] = experiment: Inhibition of phagocytosis by cytochalasin D, cytokine ELISA in Mo-DCs; settings: 5 μg/mL CytD 45 min before 1 μg/mL antigen
porcine PBMCs = assay type: cell-based, pigs; settings: 12 hours
porcine Mo-DCs [3] = assay type: cell-based, pigs
porcine Mo-MΦs [4] = assay type: cell-based, pigs

Row | Molecule | VN titers (FMDV) | Cell proliferation, rank order (porcine naive PBMCs) | increase of neutralizing antibody (VN titers) (FMDV) | antibody titers measured by SP-O ELISA compared to the control (SP antibodies in serum) | further results
1 | Nc1nc2ncc(C=O)nc2c(=O)[nH]1 [6-Formylpterin (F), 6-formylpterin] | high levels | >antigen+T cell agonist (R) |  |  | antibody titers measured by SP-O ELISA (SP antibodies in serum): increased
2 | C=C1[C@@H](C)[C@H]2[C@H](Cc3ccccc3)NC(=O)[C@]23[C@H](OC(C)=O)/C=C/[C@@](C)(O)C(=O)[C@@H](C)C/C=C/[C@H]3[C@@H]1O [CytD, cytochalasin D] |  |  |  |  | expression of cytokine when antigen is co-cultured after CytD treatment (porcine Mo-MΦs [1]; 5 μg/mL CytD 45 min before 1 μg/mL antigen): significantly suppressed; IL-10 expression after CytD treatment (porcine Mo-MΦs [1]; not significantly different from pretreatment levels): slightly suppressed; expression of cytokine when antigen is co-cultured after CytD treatment (porcine Mo-DCs [2]): significantly suppressed
3 | C/C(=C\COP(=O)([O-])OP(=O)([O-])[O-])CO.[Li+].[Li+].[Li+] [HMP (H), (E)-1-hydroxy-2-methyl-2-butenyl 4-pyrophosphate lithium salt] |  | >antigen+iNKT cell agonist (G) | approximately 100 fold | significantly higher | 
4 | C=C(C)CCOP(=O)([O-])OP(=O)([O-])[O-].[Li+].[Li+].[Li+] [IPP (I), Isopentenyl pyrophosphate trilithium salt] | highest | >antigen alone | approximately 100 fold | significantly higher | 
5 | CCCCCCCCCCCCCCCCCCCCCCCCCC(=O)N[C@@H](CO[C@H]1O[C@H](CO)[C@H](O)[C@H](O)[C@H]1O)[C@H](O)[C@H](O)CCCCCCCCCCCCCC [α-Gal (G), α-galactosyl ceramide] | highest | >antigen+MAIT cell agonist (F) | approximately 100 fold | significantly higher | IL23A and IL23R expression (porcine PBMCs): specifically highly expressed
6 | TNFα |  |  |  |  | IL-1β (porcine Mo-DCs [3]): 432.97; IL-6 (porcine Mo-DCs [3]): 201.33; IL-10 (porcine Mo-DCs [3]): 10.85; IL-12/23p40 (porcine Mo-DCs [3]): 135.67; TNFα (porcine Mo-DCs [3]): 74.00
7 | IL-4: rpIL-4 (R&D Systems, 20 ng/mL) for M2 MΦ polarization (protein, UniProt Q04745 25-133, looked up) Interleukin-4: HKCDITLQEIIKTLNILTARKNSCMELPVTDVFAAPENTTEKETFCRASTVLRHIYRHHTCMKSLLSGLDRNLSSMANMTCSVHEAKKSTLKDFLERLKTIMKEKYSKC |  |  |  |  | IL-1β (porcine Mo-MΦs [4]): 223.43; IL-10 (porcine Mo-MΦs [4]): 1.88; IL-12/23p40 (porcine Mo-MΦs [4]): 29.00
